According to publication PMC9994133, “Substrate selectivity and inhibition of histidine JmjC hydroxylases MINA53 and NO66” (RSC Chemical Biology, 2023):
Square brackets hold non-standard residues; d marks the D form. Ends that are not written are not given here. Peptide text beside a SMILES is read from it. Aad = N[C@@H](CCCC(=O)O)C(=O)O

Assays:
[1] = target: T1, NO66 (Homo sapiens, UniProt Q9H6W3); assay: NO66 inhibition assay by Rpl8 peptides (MALDI-TOF MS); assay type: biochemical; conditions: 10 μM 2OG; for IC50: 400 nM NO66, 10 nM to 250 μM inhibitor Rpl peptide, 100 μM L-ascorbic acid, 10 μM ferrous ammonium sulfate, 50 mM MES pH 7.0, Rpl8-His216 substrate, duplicate assays; for inhibition at 5 µM: 5 μM inhibitor Rpl8 peptide, 400 nM NO66, 100 μM LAA, 10 μM FAS, 50 mM MES pH 7.0, 10 min preincubation, then 5 μM Rpl8-His216 substrate, 2 hours, room temperature, duplicate
T1 construct: His6; made in house; host or cells: Escherichia coli BL21(DE3), pET-28b
T1 sequence (Q9H6W3 167-641): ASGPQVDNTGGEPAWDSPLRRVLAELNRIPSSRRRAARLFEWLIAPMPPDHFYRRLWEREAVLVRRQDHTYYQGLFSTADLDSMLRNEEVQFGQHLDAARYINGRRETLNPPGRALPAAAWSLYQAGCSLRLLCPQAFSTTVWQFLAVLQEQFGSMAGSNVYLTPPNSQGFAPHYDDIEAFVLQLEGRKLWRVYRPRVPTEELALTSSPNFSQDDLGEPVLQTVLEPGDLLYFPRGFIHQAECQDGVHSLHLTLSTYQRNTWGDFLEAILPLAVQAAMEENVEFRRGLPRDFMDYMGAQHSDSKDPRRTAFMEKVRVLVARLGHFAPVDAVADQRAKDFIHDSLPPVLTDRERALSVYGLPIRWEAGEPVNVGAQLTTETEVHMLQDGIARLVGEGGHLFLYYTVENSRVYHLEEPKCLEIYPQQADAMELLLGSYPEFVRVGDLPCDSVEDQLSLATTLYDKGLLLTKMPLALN
Procedure: (§1) Having shown that our Rpl peptides are not, at least efficient, ROX substrates, we explored them as inhibitors of the recombinant human ROXs using MALDI-TOF assays (Rpl8/27a-N^τ-Me, Rpl8/27a-N^π-Me, Rpl8/27a-1-TriaA, Rpl8/27a-4-TriaA and Rpl8/27a-TetrA were excluded from the panels for NO66 and MINA53, respectively, due to signal overlap between the two peptides in the assays). Synthetic Rpl peptides (5 or 50 μM) were incubated with MINA53/NO66 (400 nM), ferrous ammonium sulfate (10 μM) and 2OG (10 μM) for 10 minutes, after which time the Rpl27a-His39 and Rpl8-His216 substrates were added, respectively, and the reactions were carried out for 2 hours at room temperature (Fig. 4 and Fig. S9, ESI ^†).
(§2) IC50 values were determined for the peptides that manifested clear inhibition potency by varying the concentration of the Rpl peptide inhibitor from 10 nM to 250 μM (Fig. 5 and Table 1).
(§3) IC50 values for MINA53 inhibition by Rpl27a peptides and NO66 inhibition by Rpl8 peptides. Conditions: 400 nM MINA53/NO66, 10 nM to 250 μM inhibitor Rpl peptide, 100 μM L-ascorbic acid, 10 μM ferrous ammonium sulfate, 10 μM 2OG in 50 mM MES buffer (pH 7.0) for NO66 and 50 mM HEPES (pH 7.5) for MINA53
(§4) MINA53 and NO66 inhibition assays in the presence of Rpl27a31-49 and Rpl8_205-224 peptides, respectively, were performed under the following assay conditions: 400 nM MINA53/NO66, 5/50 μM inhibitor Rpl peptide, 100 μM LAA, 10 μM FAS, 10 μM 2OG in 50 mM MES buffer (pH 7.0) for NO66 and 50 mM HEPES buffer (pH 7.5) for MINA53.[24] After 10 minutes of preincubation 5 μM of substrate peptide was added and the reaction was incubated for 2 hours at room temperature. A positive control reaction containing enzyme and unmodified peptide substrate without any inhibitors was included. After 2 hours the reaction was stopped by addition of 20 μL of 10% (v/v) LC-MS grade formic acid (Fisher Scientific), mixed 1 : 1 with α-cyano-4-hydroxycinnamic acid (CHCCA) matrix dissolved in a mixture of H2O and MeCN (1 : 1, v/v), and loaded onto an MTP 384 polished steel target to be analyzed by MALDI-TOF MS. MINA53/NO66 residual activity was determined by calculating the relative integral of the […] peptide to a control reaction in absence of potential inhibitory peptides. Experiments were carried out in duplicate.
3. Inhibition supporting figure
Figure S9. Results from NO66 inhibition at A) 5 µM and B) 50 µM of Rpl8-based peptides. Error
bars are standard errors (SE) of duplicate analyses. […]

[2] = target: T2, MINA53 (Homo sapiens, UniProt Q8IUF8); assay: MINA53 inhibition assay by Rpl27a peptides (MALDI-TOF MS); assay type: biochemical; conditions: 10 μM 2OG; for IC50: 400 nM MINA53, 10 nM to 250 μM inhibitor Rpl peptide, 100 μM L-ascorbic acid, 10 μM ferrous ammonium sulfate, 50 mM HEPES pH 7.5, Rpl27a-His39 substrate, duplicate assays
T2 construct: His6; made in house; host or cells: Escherichia coli BL21(DE3), pET-28b
T2 sequence (Q8IUF8 26-464): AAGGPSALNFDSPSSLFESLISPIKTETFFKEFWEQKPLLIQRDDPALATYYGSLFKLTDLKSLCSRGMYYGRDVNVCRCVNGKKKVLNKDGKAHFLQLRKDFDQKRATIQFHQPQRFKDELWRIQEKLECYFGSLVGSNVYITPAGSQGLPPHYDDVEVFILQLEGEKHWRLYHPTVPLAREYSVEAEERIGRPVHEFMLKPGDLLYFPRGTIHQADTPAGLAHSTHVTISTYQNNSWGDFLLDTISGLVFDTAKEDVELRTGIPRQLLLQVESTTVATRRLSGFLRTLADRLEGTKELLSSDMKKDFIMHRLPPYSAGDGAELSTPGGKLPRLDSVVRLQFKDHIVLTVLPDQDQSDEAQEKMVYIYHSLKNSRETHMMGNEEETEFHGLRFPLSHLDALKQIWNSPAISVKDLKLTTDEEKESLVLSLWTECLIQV
Procedure: as §1
Fig. 4 Results for MINA53 inhibition at (a) 5 μM and (b) 50 μM by Rpl27a peptides. Error bars reported as standard errors (SE) carried out in duplicate. See Fig. 2 for analogue structures.
as §2, §3, §4

Compound | IC50 [1] [µM] | inhibition at 5 µM [1] [%] | IC50 [2] [µM] | MINA53 inhibition at 5 μM (in words) ([2]; 5 μM inhibitor Rpl27a peptide, 400 nM MINA53, 100 μM LAA, 10 μM FAS, 50 mM HEPES pH 7.5, 10 min preincubation, then 5 μM Rpl27a-His39 substrate, 2 hours, room temperature, duplicate) | MINA53 inhibition at 50 μM (in words) ([2]; 50 μM inhibitor Rpl27a peptide, 400 nM MINA53, 100 μM LAA, 10 μM FAS, 50 mM HEPES pH 7.5, 10 min preincubation, then 5 μM Rpl27a-His39 substrate, 2 hours, room temperature, duplicate)
CC[C@H](C)[C@H](NC(=O)[C@H](CCCNC(=N)N)NC(=O)[C@H](Cc1c[nH]cn1)NC(=O)[C@H](Cc1c[nH]cn1)NC(=O)[C@H](CCCC(N)=O)NC(=O)[C@H](CC(C)C)NC(=O)CNC(=O)CNC(=O)[C@H](C)NC(=O)[C@H](CC(N)=O)NC(=O)CNC(=O)[C@H](CCCNC(=N)N)NC(=O)CN)C(=O)N[C@@H](CC(N)=O)C(=O)N[C@@H](Cc1ccccc1)C(=O)N[C@@H](CC(=O)O)C(=O)N[C@@H](CCCCN)C(=O)N[C@@H](Cc1ccc(O)cc1)C(=O)N[C@@H](Cc1c[nH]cn1)C(=O)N1CCC[C@H]1C(N)=O [Rpl27a-hGln39] (H-GRGNAGGL[Aad](NH2)HHRINFDKYHP-NH2) | – | – | 1.47 ± 0.27 | – | –
GRGNAGGLNHHRINFDKYHP-NH2 [Rpl27a-Asn39] | – | – | 1.02 ± 0.11 | displayed inhibition | strong inhibition
NPVEHPFGGGNNQHIGKPST-NH2 [Rpl8-Asn216] | 8.86 ± 0.36 | ~50 | – | – | –

Other lines, results leading:

IC50 [1] [µM] | inhibition at 5 µM [1] [%] | IC50 [2] [µM] | MINA53 inhibition at 5 μM (in words) ([2]; 5 μM inhibitor Rpl27a peptide, 400 nM MINA53, 100 μM LAA, 10 μM FAS, 50 mM HEPES pH 7.5, 10 min preincubation, then 5 μM Rpl27a-His39 substrate, 2 hours, room temperature, duplicate) | MINA53 inhibition at 50 μM (in words) ([2]; 50 μM inhibitor Rpl27a peptide, 400 nM MINA53, 100 μM LAA, 10 μM FAS, 50 mM HEPES pH 7.5, 10 min preincubation, then 5 μM Rpl27a-His39 substrate, 2 hours, room temperature, duplicate) | Compound
11.2 ± 0.4 | ~50 | – | – | – | CC[C@H](C)[C@H](NC(=O)[C@H](Cc1c[nH]cn1)NC(=O)[C@H](CCC(N)=O)NC(=O)[C@H](CCCC(N)=O)NC(=O)[C@H](CC(N)=O)NC(=O)CNC(=O)CNC(=O)CNC(=O)[C@H](Cc1ccccc1)NC(=O)[C@@H]1CCCN1C(=O)[C@H](Cc1c[nH]cn1)NC(=O)[C@H](CCC(=O)O)NC(=O)[C@@H](NC(=O)[C@@H]1CCCN1C(=O)[C@@H](N)CC(N)=O)C(C)C)C(=O)NCC(=O)N[C@@H](CCCCN)C(=O)N1CCC[C@H]1C(=O)N[C@@H](CO)C(=O)N[C@H](C(N)=O)[C@@H](C)O [Rpl8-hGln216] (H-NPVEHPFGGGN[Aad](NH2)QHIGKPST-NH2; N-terminus assumed)
– | – | 0.39 ± 0.16 | – | – | GRGNAGGLQHHRINFDKYHP-NH2 [Rpl27a-Gln39]
